Structures are written as SMILES. pIC50: −log10 of the molar value.

Data on 14 compounds can be found in patent publication US20120053200A1, “BACE 2 INHIBITORS” (priority 2010, published 2012).

This experiment deals with T1, BACE2 (Rattus norvegicus, UniProt Q6IE75).
T1 construct: endogenous cellular BACE2 in the Ins1e rat cell line; endogenous in cells; host or cells: INS-TMEM27 (INS1e-derived rat beta-cell line with doxycycline-inducible full-length hTMEM27)
T1 sequence (Q6IE75 63-514): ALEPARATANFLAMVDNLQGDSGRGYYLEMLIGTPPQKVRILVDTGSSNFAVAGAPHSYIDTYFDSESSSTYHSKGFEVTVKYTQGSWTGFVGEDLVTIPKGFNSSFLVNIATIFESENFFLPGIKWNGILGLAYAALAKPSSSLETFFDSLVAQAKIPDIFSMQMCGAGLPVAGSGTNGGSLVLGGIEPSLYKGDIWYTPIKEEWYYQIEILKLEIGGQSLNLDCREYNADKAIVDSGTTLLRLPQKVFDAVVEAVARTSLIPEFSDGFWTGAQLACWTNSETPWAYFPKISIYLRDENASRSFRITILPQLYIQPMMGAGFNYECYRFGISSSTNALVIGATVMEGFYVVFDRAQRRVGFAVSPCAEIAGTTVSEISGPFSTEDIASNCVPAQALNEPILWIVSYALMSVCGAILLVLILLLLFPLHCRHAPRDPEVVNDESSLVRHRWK
The experiment can be described thus: Assay for BACE inhibition by measuring cellular TMEM27 cleavage (INS-TMEM27 cells, ELISA of shed TMEM27). The format is cell-based. As to conditions: inhibition of human TMEM27 cleavage by endogenous cellular BACE2 in INS1e-derived INS-TMEM27 rat cell line; ELISA of shed TMEM27 in supernatant. Put shortly:
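Rat INS1e-derived cells with doxycycline-inducible full-length human TMEM27, cleaved by endogenous BACE2. After 2 days' culture, inhibitor added; 2 h later, doxycycline to 500 ng/ml final, then 46 h at 37 °C. Shed TMEM27 in medium quantified by sandwich ELISA; IC50 from curve fit.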
For orientation: An ELISA detects its analyte on a solid surface through an enzyme-linked reagent.

By pIC50 is commonly meant −log10 of the IC50, conventionally taken in molar units. Read a high pIC50 as a low IC50. Turning to `Cc1cc(C(=O)N[C@@H](Cc2ccccc2)[C@H](O)CNCc2cccc(C(F)(F)F)c2)cc(C(=O)N(C)Cc2ccccn2)c1` [Example 52, N-[(1S,2R)-1-Benzyl-2-hydroxy-3-(3-trifluoromethyl-benzylamino)-propyl]-5,N′-dimethyl-N′-pyridin-2-ylmethyl-isophthalamide], the pIC50 is 7.02.
Regarding `O=C(N[C@@H](Cc1ccccc1)[C@H](O)CNCc1cccc(C(F)(F)F)c1)c1cccc(C(=O)N2CCCC2c2cccc(F)c2)c1` (stereo partly drawn) [Example 68, N-[(1S,2R)-1-Benzyl-2-hydroxy-3-(3-trifluoromethyl-benzylamino)-propyl]-3-[2-(3-fluoro-phenyl)-pyrrolidine-1-carbonyl]-benzamide], the pIC50 is 8.70.
As for `Cc1cc(C(=O)N[C@@H](Cc2ccccc2)[C@H](O)CNCc2cccc(C(F)(F)F)c2)cc(C(=O)N2CCC[C@@H]2c2nc(C)cs2)c1` [Example 49, N-[(1S,2R)-1-Benzyl-2-hydroxy-3-(3-trifluoromethyl-benzylamino)-propyl]-3-methyl-5-[(R)-2-(4-methyl-thiazol-2-yl)-pyrrolidine-1-carbonyl]-benzamide], the pIC50 is 6.92.
Turning to `COc1ccc(C2CCCN2C(=O)c2cccc(C(=O)N[C@@H](Cc3ccccc3)[C@H](O)CNCc3cccc(C(F)(F)F)c3)c2)cc1` (stereo partly drawn) [Example 56, N-[(1S,2R)-1-Benzyl-2-hydroxy-3-(3-trifluoromethyl-benzylamino)-propyl]-3-[2-(4-methoxy-phenyl)-pyrrolidine-1-carbonyl]-benzamide], the pIC50 was 6.94.
`CCn1cc(CNC[C@@H](O)[C@H](Cc2ccccc2)NC(=O)c2cc(C)cc(C(=O)N(C)Cc3ccccn3)c2)cn1` [Example 37, N-{(1S,2R)-1-Benzyl-3-[(1-ethyl-1H-pyrazol-4-ylmethyl)-amino]-2-hydroxy-propyl}-5,N′-dimethyl-N′-pyridin-2-ylmethyl-isophthalamide] showed a pIC50 of 9.00.
With `COc1cccc(CNC[C@@H](O)[C@H](Cc2ccccc2)NC(=O)c2cccc(C(=O)N3CCCC3c3ccccc3)c2)c1` (stereo partly drawn) [Example 22, N-[(1S,2R)-1-Benzyl-2-hydroxy-3-(3-methoxy-benzylamino)-propyl]-3-(2-phenyl-pyrrolidine-1-carbonyl)-benzamide] the figure was 7.51; with `CC1CCN(C(=O)c2cccc(C(=O)N[C@@H](Cc3ccccc3)[C@H](O)CNCc3cccc(C(F)(F)F)c3)c2)C1c1ccc(F)cc1` (stereo partly drawn) [Example 63, N-[(1S,2R)-1-Benzyl-2-hydroxy-3-(3-trifluoromethyl-benzylamino)-propyl]-3-[2-(4-fluoro-phenyl)-3-methyl-pyrrolidine-1-carbonyl]-benzamide], 9.00.
Under `COc1cccc(CNC[C@@H](O)[C@H](Cc2ccccc2)NC(=O)c2cccc(C(=O)N3CCCC3c3ccc(C)s3)c2)c1` (stereo partly drawn) [Example 27, N-[(1S,2R)-1-Benzyl-2-hydroxy-3-(3-methoxy-benzylamino)-propyl]-3-[2-(5-methyl-thiophen-2-yl)-pyrrolidine-1-carbonyl]-benzamide] stands 6.50.
In turn, `Cc1csc(CN(C)C(=O)c2cccc(C(=O)N[C@@H](Cc3ccccc3)[C@H](O)CNCc3cccc(OC(F)(F)F)c3)c2)n1` [Example 2, N-[(1S,2R)-1-Benzyl-2-hydroxy-3-(3-trifluoromethoxy-benzylamino)-propyl]-N′-methyl-N′-(4-methyl-thiazol-2-ylmethyl)-isophthalamide] had a pIC50 of 6.59.
`Cc1ccc(C2CCCN2C(=O)c2cccc(C(=O)N[C@@H](Cc3ccccc3)[C@H](O)CNCc3cccc(C(F)(F)F)c3)c2)cc1` (stereo partly drawn) [Example 55, N-[(1S,2R)-1-Benzyl-2-hydroxy-3-(3-trifluoromethyl-benzylamino)-propyl]-3-(2-p-tolyl-pyrrolidine-1-carbonyl)-benzamide] had a pIC50 of 7.38.
Under `CCn1cc(CNC[C@@H](O)[C@H](Cc2ccccc2)NC(=O)c2cc(C(=O)N3CCCC3c3cccs3)cc(N(C)S(C)(=O)=O)c2)cn1` (stereo partly drawn) [Example 38, N-{(1S,2R)-1-Benzyl-3-[(1-ethyl-1H-pyrazol-4-ylmethyl)-amino]-2-hydroxy-propyl}-3-(methanesulfonyl-methyl-amino)-5-(2-thiophen-2-yl-pyrrolidine-1-carbonyl)-benzamide] stands 9.52; under `CCn1cc(CNC[C@@H](O)[C@H](Cc2ccccc2)NC(=O)c2cc(C)cc(C(=O)N3CCCC3c3cccs3)c2)cn1` (stereo partly drawn) [Example 39, N-{(1S,2R)-1-Benzyl-3-[(1-ethyl-1H-pyrazol-4-ylmethyl)-amino]-2-hydroxy-propyl}-3-methyl-5-(2-thiophen-2-yl-pyrrolidine-1-carbonyl)-benzamide], 9.00.
With `Cc1cc(C(=O)N[C@@H](Cc2ccccc2)[C@H](O)CNCc2cccc(C(F)(F)F)c2)cc(C(=O)N2CCCC2c2cccs2)c1` (stereo partly drawn) [Example 54, N-[(1S,2R)-1-Benzyl-2-hydroxy-3-(3-trifluoromethyl-benzylamino)-propyl]-3-methyl-5-(2-thiophen-2-yl-pyrrolidine-1-carbonyl)-benzamide], the pIC50 was 8.72.
In the case of `O=C(N[C@@H](Cc1ccccc1)[C@H](O)CNCc1cccc(C(F)(F)F)c1)c1cccc(C(=O)N2CCCC2C2CCCC2)c1` (stereo partly drawn) [Example 72, N-[(1S,2R)-1-Benzyl-2-hydroxy-3-(3-trifluoromethyl-benzylamino)-propyl]-3-(2-cyclopentyl-pyrrolidine-1-carbonyl)-benzamide], the pIC50 is 7.18.
